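Five compound concentrations were applied to cells in 96-well plates for 48 hours; endpoints were derived by simple linear interpolation of the resulting dose-response curve. GI50: concentration for 50% inhibition of growth.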 The source made the active and inactive calls. Cut-off read from the data, not from the text of the source: active = GI50 up to about 1.1 µM and inactive = higher.
Experiments:
Assay in all cases: NCI tumour cell line growth inhibition, 48 h
SK-MEL-2 = test system: SK-MEL-2
SF-295 = test system: SF-295
NCI/ADR-RES = test system: NCI/ADR-RES
MDA-MB-231 = test system: MDA-MB-231
U-251 = test system: U-251
BT-549 = test system: BT-549
HCC 2998 = test system: HCC 2998
COLO 205 = test system: COLO 205
SF-539 = test system: SF-539
NCI-H226 = test system: NCI-H226
UACC-62 = test system: UACC-62
RXF 393 = test system: RXF 393
LOX IMVI = test system: LOX IMVI
HOP-92 = test system: HOP-92
OVCAR-5 = test system: OVCAR-5
A549 = test system: A549
TK-10 = test system: TK-10
SK-OV-3 = test system: SK-OV-3
M14 = test system: M14
SNB-75 = test system: SNB-75

Measured: GI50

COCC12CCC(OC)C34C5CC6(O)C(OC)CC(OC(C)=O)(C5C6OC(=O)c5ccccc5)C(C(OC)C13)C4N(C)C2 (configuration not stated)
inactive: SK-MEL-2 > 100 µM | SF-295 > 100 µM | NCI/ADR-RES > 100 µM | MDA-MB-231 > 100 µM | U-251 > 100 µM | BT-549 > 100 µM | HCC 2998 > 100 µM | COLO 205 > 100 µM | SF-539 > 100 µM | NCI-H226 > 100 µM | UACC-62 > 100 µM | RXF 393 > 100 µM | LOX IMVI > 100 µM | HOP-92 > 100 µM | OVCAR-5 > 100 µM | A549 > 100 µM | TK-10 > 100 µM | SK-OV-3 43 µM | M14 > 100 µM

Cc1cc(C)n(-c2nc(C)c(CCO)c(=O)[nH]2)n1
inactive: SF-295 > 100 µM | NCI/ADR-RES 52 µM | MDA-MB-231 > 100 µM | U-251 > 100 µM | BT-549 > 100 µM | HCC 2998 > 100 µM | COLO 205 > 100 µM | SF-539 > 100 µM | NCI-H226 > 100 µM | UACC-62 > 100 µM | RXF 393 > 100 µM | LOX IMVI > 100 µM | HOP-92 > 100 µM | SNB-75 97.5 µM | OVCAR-5 > 100 µM | A549 > 100 µM | TK-10 > 100 µM | SK-OV-3 > 100 µM | M14 > 100 µM

O=C(CCCCCCCCC(=O)N1C(=O)CC(=O)N(c2ccccc2)C1=S)N1C(=O)CC(=O)N(c2ccccc2)C1=S
inactive: SK-MEL-2 > 100 µM | SF-295 > 100 µM | NCI/ADR-RES > 100 µM | MDA-MB-231 > 100 µM | U-251 > 100 µM | BT-549 > 100 µM | HCC 2998 > 100 µM | COLO 205 > 100 µM | UACC-62 > 100 µM | RXF 393 > 100 µM | LOX IMVI > 100 µM | HOP-92 > 100 µM | SNB-75 > 100 µM | OVCAR-5 > 100 µM | A549 > 100 µM | TK-10 > 100 µM | SK-OV-3 > 100 µM | M14 > 100 µM

O=S(=O)([C-]([I+]c1ccccc1)S(=O)(=O)C(F)(F)C(F)(F)C(F)(F)C(F)(F)F)C(F)(F)C(F)(F)C(F)(F)C(F)(F)F
inactive: SF-295 16.6 µM | NCI/ADR-RES 24.3 µM | MDA-MB-231 24.1 µM | U-251 14.4 µM | BT-549 15.2 µM | HCC 2998 20 µM | COLO 205 6.64 µM | SF-539 15.5 µM | NCI-H226 3.97 µM | UACC-62 17.9 µM | LOX IMVI 14.4 µM | HOP-92 8.77 µM | SNB-75 14.8 µM | OVCAR-5 17.2 µM | A549 18.7 µM | TK-10 16.3 µM | SK-OV-3 16.7 µM | M14 13.6 µM

COc1ccc([N+](=O)[O-])c2c(NCCCN(C)C)c(C)c(C)nc12
inactive: SK-MEL-2 > 100 µM | SF-295 90.8 µM | NCI/ADR-RES > 100 µM | MDA-MB-231 57.5 µM | U-251 > 100 µM | BT-549 56.6 µM | HCC 2998 > 100 µM | COLO 205 26.2 µM | SF-539 > 100 µM | UACC-62 81.3 µM | LOX IMVI > 100 µM | HOP-92 23.9 µM | SNB-75 36.1 µM | OVCAR-5 > 100 µM | A549 99.3 µM | TK-10 > 100 µM | SK-OV-3 > 100 µM | M14 > 100 µM

O=C(C[N+]12CN3CN(CN(C3)C1)C2)c1ccc(-c2ccccc2)cc1
inactive: SK-MEL-2 18.3 µM | SF-295 19.8 µM | NCI/ADR-RES 33.4 µM | MDA-MB-231 16.2 µM | U-251 16.8 µM | BT-549 29.9 µM | HCC 2998 15.4 µM | NCI-H226 21.2 µM | UACC-62 16.1 µM | RXF 393 19.1 µM | LOX IMVI 15.3 µM | HOP-92 33.5 µM | SNB-75 19.7 µM | OVCAR-5 18.6 µM | A549 30.1 µM | TK-10 21.2 µM | M14 21.7 µM

NCCCCCNOCCCN
inactive: SK-MEL-2 > 100 µM | SF-295 > 100 µM | NCI/ADR-RES > 100 µM | MDA-MB-231 > 100 µM | U-251 > 100 µM | BT-549 > 100 µM | HCC 2998 > 100 µM | COLO 205 > 100 µM | SF-539 > 100 µM | NCI-H226 > 100 µM | UACC-62 > 100 µM | LOX IMVI > 100 µM | HOP-92 > 100 µM | SNB-75 63.1 µM | OVCAR-5 > 100 µM | A549 > 100 µM | TK-10 > 100 µM | SK-OV-3 > 100 µM | M14 > 100 µM

Nc1ccccc1C(=O)CCc1c[nH]c2ccccc12
inactive: SK-MEL-2 > 100 µM | SF-295 19.4 µM | NCI/ADR-RES > 100 µM | MDA-MB-231 > 100 µM | U-251 27.4 µM | BT-549 19.3 µM | HCC 2998 > 100 µM | SF-539 30.3 µM | NCI-H226 > 100 µM | UACC-62 25.1 µM | LOX IMVI 47.5 µM | HOP-92 13.3 µM | SNB-75 29.4 µM | OVCAR-5 > 100 µM | A549 > 100 µM | TK-10 > 100 µM | SK-OV-3 27 µM | M14 > 100 µM

Cc1ccc(Nc2nc(=O)[nH]c(=O)[nH]2)cc1N
inactive: SK-MEL-2 > 100 µM | SF-295 > 100 µM | NCI/ADR-RES > 100 µM | MDA-MB-231 > 100 µM | U-251 27.5 µM | BT-549 > 100 µM | HCC 2998 > 100 µM | COLO 205 > 100 µM | SF-539 > 100 µM | NCI-H226 > 100 µM | UACC-62 > 100 µM | LOX IMVI > 100 µM | HOP-92 > 100 µM | SNB-75 > 100 µM | OVCAR-5 > 100 µM | A549 > 100 µM | TK-10 > 100 µM | SK-OV-3 > 100 µM | M14 > 100 µM

O=C1c2ccccc2C(=O)N1c1ccc(OCCN2CCCCC2)cc1
inactive: SK-MEL-2 > 100 µM | SF-295 > 100 µM | NCI/ADR-RES > 100 µM | MDA-MB-231 > 100 µM | U-251 > 100 µM | BT-549 > 100 µM | HCC 2998 > 100 µM | COLO 205 > 100 µM | SF-539 > 100 µM | NCI-H226 > 100 µM | UACC-62 > 100 µM | RXF 393 > 100 µM | LOX IMVI > 100 µM | HOP-92 > 100 µM | OVCAR-5 > 100 µM | A549 > 100 µM | TK-10 > 100 µM | SK-OV-3 > 100 µM | M14 > 100 µM

COc1ccc(Nc2nc3cc(C(F)(F)F)ccc3n3cccc23)cc1OC
inactive: SK-MEL-2 15.5 µM | SF-295 10.3 µM | NCI/ADR-RES 15.6 µM | MDA-MB-231 17.8 µM | U-251 15.2 µM | BT-549 17.3 µM | HCC 2998 14 µM | SF-539 16.8 µM | UACC-62 15.5 µM | RXF 393 10.8 µM | LOX IMVI 4.7 µM | HOP-92 15.7 µM | SNB-75 10.6 µM | OVCAR-5 18.6 µM | A549 14.1 µM | TK-10 12.6 µM | SK-OV-3 27.9 µM | M14 14.3 µM

— ChEMBL document CHEMBL1201862, “PubChem BioAssay data set” (2004)
